Test results: the supplement of paper PMC11451515

System: SEM cells
Experiment: cell viability relative to DMSO control; higher = less cytotoxic
Settings: 48 h
How it was run: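 Viability was expressed as a per-plate percentage of DMSO wells, with cell-free wells as background. Leukemia cells (NOMO1 or SEM at 500 cells/well, P12-Ichikawa at 1000 cells/well) were adapted for at least four passages in each medium and seeded in 1536-well plates (5 μl). Library compounds in DMSO were pin-dosed over an 11-point threefold series from 47 μM to 0.79 nM, and CellTiter-Glo One luminescence was read after 48 h at 37°C.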

[1] = HPLM + 10% dialyzed FBS, 0.000781 µM
[2] = HPLM + 10% dialyzed FBS, 0.00234 µM
[3] = HPLM + 10% dialyzed FBS, 0.00702 µM
[4] = HPLM + 10% dialyzed FBS, 0.0211 µM
[5] = HPLM + 10% dialyzed FBS, 0.0632 µM
[6] = HPLM + 10% dialyzed FBS, 0.19 µM
[7] = HPLM + 10% dialyzed FBS, 0.569 µM
[8] = HPLM + 10% dialyzed FBS, 1.71 µM
[9] = HPLM + 10% dialyzed FBS, 5.12 µM
[10] = HPLM + 10% dialyzed FBS, 15.4 µM
[11] = HPLM + 10% dialyzed FBS, 46.1 µM
[12] = RPMI 5 mM glucose + 10% FBS, 0.000781 µM
[13] = RPMI 5 mM glucose + 10% FBS, 0.00234 µM
[14] = RPMI 5 mM glucose + 10% FBS, 0.00702 µM
[15] = RPMI 5 mM glucose + 10% FBS, 0.0211 µM
[16] = RPMI 5 mM glucose + 10% FBS, 0.0632 µM
[17] = RPMI 5 mM glucose + 10% FBS, 0.19 µM
[18] = RPMI 5 mM glucose + 10% FBS, 0.569 µM
[19] = RPMI 5 mM glucose + 10% FBS, 1.71 µM
[20] = RPMI 5 mM glucose + 10% FBS, 5.12 µM
[21] = RPMI 5 mM glucose + 10% FBS, 15.4 µM
[22] = RPMI 5 mM glucose + 10% FBS, 46.1 µM
[23] = RPMI 5 mM glucose + 10% dialyzed FBS, 0.000781 µM
[24] = RPMI 5 mM glucose + 10% dialyzed FBS, 0.00234 µM
[25] = RPMI 5 mM glucose + 10% dialyzed FBS, 0.00702 µM
[26] = RPMI 5 mM glucose + 10% dialyzed FBS, 0.0211 µM
[27] = RPMI 5 mM glucose + 10% dialyzed FBS, 0.0632 µM
[28] = RPMI 5 mM glucose + 10% dialyzed FBS, 0.19 µM
[29] = RPMI 5 mM glucose + 10% dialyzed FBS, 0.569 µM
[30] = RPMI 5 mM glucose + 10% dialyzed FBS, 1.71 µM
[31] = RPMI 5 mM glucose + 10% dialyzed FBS, 5.12 µM
[32] = RPMI 5 mM glucose + 10% dialyzed FBS, 15.4 µM
[33] = RPMI 5 mM glucose + 10% dialyzed FBS, 46.1 µM

SMILES | cell viability [1] | cell viability [2] | cell viability [3] | cell viability [4] | cell viability [5] | cell viability [6] | cell viability [7] | cell viability [8] | cell viability [9] | cell viability [10] | cell viability [11] | cell viability [12] | cell viability [13] | cell viability [14] | cell viability [15] | cell viability [16] | cell viability [17] | cell viability [18] | cell viability [19] | cell viability [20] | cell viability [21] | cell viability [22] | cell viability [23] | cell viability [24] | cell viability [25] | cell viability [26] | cell viability [27] | cell viability [28] | cell viability [29] | cell viability [30] | cell viability [31] | cell viability [32] | cell viability [33]
CN1CCN2c3ncccc3Cc3ccccc3C2C1 (centres undefined) | 115% | 91.6% | 101% | 97.4% | 98.9% | 106% | 22% | 112% | 112% | 89.5% | 101% | 116% | 116% | 108% | 121% | 114% | 129% | 16.9% | 122% | 127% | 111% | 97% | 137% | 116% | 113% | 124% | 134% | 136% | 28.7% | 129% | 126% | 124% | 122%
COc1cc2c(Nc3ccc(Br)cc3F)ncnc2cc1OCC1CCN(C)CC1 | 45.3% | 81.6% | 94.3% | 69.3% | 71.4% | 76.8% | 72.2% | 65% | 79.4% | 31% | 66.2% | 67.3% | 124% | 111% | 112% | 118% | 110% | 84.2% | 88.7% | 98.1% | 58.9% | 74.1% | 40% | 83.4% | 91% | 89.2% | 63.7% | 80.7% | 81.7% | 63.2% | 79.1% | 42.5% | 63.5%
CN1\C(=C(\O)C2=C(C=CC=C2)[S+]1([O-])=O)C(=O)NC3=CC=CC=N3 | 92.2% | 81.9% | 96.9% | 75% | 91.9% | 114% | 7.98% | 67.2% | 112% | 63.3% | 64.9% | 90% | 95% | 97.8% | 107% | 106% | 117% | 6.64% | 54.8% | 93.2% | 54.9% | 56.6% | 98.4% | 86.6% | 112% | 107% | 123% | 109% | 8.39% | 51.8% | 96.6% | 59.8% | 74.5%
Nc1nnc(-c2cccc(Cl)c2Cl)c(N)n1 | 80.7% | 80% | 98.9% | 21.9% | 96.6% | 92.1% | 96.5% | 103% | 105% | 115% | 92.4% | 71.7% | 74.5% | 85.2% | 13.1% | 97.6% | 96.7% | 104% | 99.1% | 99.9% | 90.4% | 89.7% | 88.5% | 88.1% | 88.2% | 16.1% | 92.1% | 97.5% | 103% | 101% | 101% | 107% | 113%
CN(C)CCOc1ccc(-c2nc(-c3ccncc3)c(-c3ccc4c(c3)CC/C4=N\O)[nH]2)cc1 | 108% | 111% | 106% | 106% | 110% | 101% | 114% | 117% | 112% | 109% | 24.8% | 107% | 104% | 106% | 124% | 123% | 113% | 126% | 114% | 122% | 109% | 19.6% | 115% | 109% | 111% | 113% | 113% | 119% | 125% | 134% | 119% | 115% | 68.5%
N[S+](=O)([O-])c1cccc2c1C(=O)c1cccc(O)c1C2=O | 84.4% | 95.8% | 98.9% | 84.2% | 91.8% | 91.5% | 61.6% | 59.9% | 53.7% | 44.1% | 3.56% | 95.8% | 96.3% | 102% | 68.9% | 94.7% | 83.2% | 51.1% | 44.2% | 21.9% | 4.54% | 3.13% | 89.4% | 102% | 96.1% | 62.1% | 95.1% | 70% | 40.8% | 33.3% | 18.3% | 24.5% | 3.78%
NCCCCNCCCN | 74.8% | 80.2% | 75.4% | 89.7% | 97.8% | 99.5% | 87.6% | 99.2% | 101% | 19.7% | 3.89% | 107% | 73.5% | 97% | 93.9% | 108% | 110% | 99.1% | 106% | 106% | 43.5% | 4.26% | 88% | 83.7% | 94.2% | 75.6% | 106% | 103% | 93.7% | 99.4% | 91.9% | 21.4% | 4.65%
CN(C)c1nc(Cc2ccc(NC(=O)c3ccc4ccccc4c3)cc2)nc(Cl)c1CC(=O)O | 120% | 114% | 112% | 116% | 109% | 111% | 138% | 113% | 105% | 110% | 105% | 110% | 116% | 127% | 108% | 107% | 110% | 110% | 93.8% | 107% | 102% | 105% | 119% | 115% | 136% | 122% | 126% | 108% | 112% | 107% | 111% | 137% | 108%
CC1(C)CNc2cc(NC(=O)c3cccnc3NCc3ccncc3)ccc21 | 118% | 118% | 121% | 112% | 102% | 104% | 92.4% | 101% | 96.3% | 93% | 13.2% | 85.4% | 70.9% | 87.7% | 79.4% | 79.7% | 79.4% | 73.9% | 75.4% | 78.1% | 70.1% | 12.9% | 111% | 112% | 105% | 128% | 125% | 100% | 102% | 91.1% | 79.2% | 90.6% | 7.67%
C=CC(=O)Nc1cccc(Nc2nc(NC3CCC(N(C)C)CC3)nc3c2ncn3C(C)C)c1 (centres undefined) | 107% | 106% | 112% | 112% | 105% | 95.9% | 81.9% | 40.6% | 9.48% | 4.66% | 4.5% | 116% | 107% | 101% | 113% | 117% | 106% | 86.9% | 70.1% | 10.8% | 4.33% | 3.98% | 105% | 111% | 109% | 110% | 115% | 107% | 82.5% | 40.9% | 9.22% | 3.79% | 3.4%
CC[C@]12\C=C/CN3CC[C@]4([C@@H](N(C)C5=CC(=C(C=C45)[C@]6(C[C@H]7C[C@H](CN(C7)CC8=C6[NH]C9=C8C=CC=C9)C(C)(F)F)C(=O)OC)OC)[C@](O)([C@@H]1OC(C)=O)C(=O)OC)[C@H]23 | 107% | 97.9% | 94.9% | 74.6% | 29.3% | 21.1% | 22% | 22% | 25% | 17.8% | 6.8% | 120% | 120% | 87.4% | 76.9% | 18.7% | 18.8% | 17.3% | 20.2% | 15.6% | 11.3% | 6.89% | 95.3% | 83% | 74.5% | 68.9% | 43.2% | 21.2% | 16.9% | 18.9% | 21% | 15.3% | 5.17%
CC(C)c1cc(C(=O)N2Cc3ccc(CN4CCN(C)CC4)cc3C2)c(O)cc1O | – | – | – | – | – | – | – | – | – | – | – | 104% | 105% | 107% | 17.8% | 112% | 107% | 31.1% | 23.5% | 21.5% | 23.1% | 18.3% | 125% | 120% | 120% | 20.5% | 106% | 99.9% | 47.2% | 32.4% | 29.8% | 28.8% | 25.9%
OC(=O)C(CC/1=C/C(=O)NC2=CC=CC=C12)NC(=O)C3=CC=C(Cl)C=C3 (centres undefined) | 94.7% | 93.9% | 108% | 106% | 108% | 107% | 116% | 105% | 121% | 121% | 112% | 113% | 109% | 106% | 113% | 133% | 112% | 116% | 112% | 121% | 126% | 104% | 120% | 105% | 126% | 130% | 118% | 119% | 135% | 117% | 131% | 119% | 120%
Cc1ccc([S+](=O)([O-])Nc2nc3ccccc3nc2Nc2ccc3nsnc3c2)cc1 | 81.7% | 90.3% | 99.9% | 88.2% | 92.6% | 93.5% | 87.8% | 90.5% | 78.6% | 73.5% | 59.1% | 102% | 100% | 102% | 112% | 107% | 101% | 97.8% | 105% | 78.7% | 81.3% | 54.9% | 95% | 87.9% | 84.8% | 96% | 88.2% | 84.4% | 89.7% | 96.4% | 83.2% | 61.8% | 65.8%
CO/C1=C/C(C)=C\[C@@H](C)[C@@H](O)[C@@H](C)C/C(C)=C\C=C/[C@H](OC)[C@@H]([C@@H](C)[C@@H](O)[C@H](C)[C@@]2(O)C[C@@H](O)[C@H](C)[C@@H](C(C)C)O2)OC1=O | 91% | 74.8% | 91% | 48.6% | 28.7% | 27% | 27% | 25.2% | 32% | 29% | 29.7% | 80.9% | 75% | 88.1% | 46.8% | 29.2% | 26.2% | 24.6% | 29.9% | 31.8% | 32.8% | 31.8% | 81.3% | 79.9% | 87.8% | 38.1% | 27.3% | 27.8% | 29.6% | 30.1% | 26.2% | 29.7% | 30.3%
